PubChem BioAssay AID1963844 (Molecular Pharmacology Branch, DTP, NCI, 2024)

Test system: 422866-222-R5-J1-PDC complex spheroid viability
Assay: Anticancer human tumor 422866-222-R5-J1-PDC patient-derived pancreatic adenocarcinoma cell line growth inhibition [POLQ]
Details: for IC50: curve of first compound; for viability, T/C: stronger effect = lower value
Method: Multicellular complex tumor spheroid response to Polymerase (POL) inhibitors (novobiocin, ART-558, RP6685) in combination with a variety of drugs and investigational agents in selected tumor cell lines
The POL inhibitors (novobiocin, ART-558, and RP6685) were evaluated both individually and in combination with standard of care and investigational anticancer small molecules within a complex spheroid model of solid tumors. . Complex spheroids include a stromal component modeled by human endothelial cells (HUVEC) and fibroblasts modeled by human mesenchymal stem cells (MSCs). The concentration ranges selected for each drug and investigational agent were based upon clinically achievable concentrations if the clinical Cmax of the agent was known.
Compounds. The drugs and investigational agents: novobiocin (NSC847541), ART-558 (NSC835418), RP-6685 (NSC848927), peposertib (NSC802822), ceralasertib (NSC780249), elimusertib (NSC800525), camonsertib (NSC841442), AZD-1390 (NSC803789), olaparib (NSC753686), talazoparib (NSC767125), rucaparib (NSC756644), sotorasib (NSC818433), MRTX-1133 (NSC836407), SN-38 (NSC673596), topotecan (NSC609699), epotoside (NSC141540), doxorubicin (NSC123127), gemcitabine (NSC613327), 5-fluorouracil (NSC19893), paclitaxel (NSC125973), vemurafenib (NSC761431), MSA-2 (NSC828583), SN-011 (NSC837082), adavosertib (NSC754352), prexasertib (NSC758257), carboplatin (NSC241240) and oxaliplatin (NSC266046), were obtained from the National Cancer Institute (NCI) Developmental Therapeutics Program Chemical Repository (21). The FDA-approved anticancer drug set is available from the Developmental Therapeutics Program at https://dtp.cancer.gov/organization/dscb/obtaining/. […] The stock solutions were prepared in dimethyl sulfoxide (DMSO, Sigma-Aldrich, St. Louis, MO, cat. D2650), except for the platinum compounds which were prepared in saline (Quality Biological, Gaithersburg, MD, cat. 114-055-101), at 800-fold the tested concentration and stored at -70 degrees C prior to their use. All drugs and investigational agents were tested over a range starting from a high concentration at or near the clinical Cmax and decreasing in half-log increments. If the clinical Cmax for an agent had not been determined, the highest concentration tested was 10 microM, except for SN-38, which was tested at a high concentration of 1 microM.
Cell Culture. All cells were maintained in an incubator at 37 degrees C and 5% CO2 with 95% humidity. The PDC lines were cultured according to standard operating procedures established by the NCI PDMR (https://pdmr.cancer.gov). Table 3 of the manuscript, lists the cell lines along with the number of the three cell types plated to form the mct-spheroids and media for tumor cell growth. After thawing, all PDC lines, except 997537-175-T-J1-PDC and 415267-285-R-J2-PDC, were cultured in Matrigel-coated flasks prepared with a working solution of 1X Ham's F-12 nutrient mix, without supplementation (Thermo Fisher Scientific, cat. 11765054), 100 U/mL penicillin-streptomycin (Thermo Fisher Scientific, cat. 15140122), and 2.5% Matrigel (Corning Inc., Corning, NY, cat. 354248) for the first three passages. The two PDC lines 997537-175-T-J1-PDC and 415267-285-R-J2-PDC were cultured on uncoated flasks. The 857933-349-R-J2-PDC line was cultured in 6C/Colon 1B media containing advanced DMEM/F-12 (Thermo Fisher Scientific, cat. 12634028), 10 mM HEPES (Thermo Fisher Scientific, cat. 15630080), 1X GlutaMAX supplement (Thermo Fisher Scientific, cat. 35050061), 0.1 mg/mL primocin (InvivoGen, San Diego, CA, cat. ant-pm-2), 10% defined fetal bovine serum, heat inactivated (HyClone Laboratories Inc., Logan, UT, cat. SH30070.03HI), 50% L-WRN conditioned media (ATCC, cat. CRL-3276), 1.25 mM N-Acetyl-L-cysteine (Sigma-Aldrich, cat. A9165), 10 mM nicotinamide (Sigma-Aldrich, cat. N0636), 1X B-27 supplement (Thermo Fisher Scientific, cat. 17504044), 1X N-2 supplement (Thermo Fisher Scientific, cat. […]

[1] = second compound 0.0316 µM, first compound 0.0316 µM
[2] = second compound 0.0316 µM, first compound 0.1 µM
[3] = second compound 0.0316 µM, first compound 0.316 µM
[4] = second compound 0.0316 µM, first compound 1 µM
[5] = second compound 0.0316 µM, first compound 3.16 µM
[6] = second compound 0.0316 µM, first compound 10 µM
[7] = second compound 0.1 µM, first compound 0.0316 µM
[8] = second compound 0.1 µM, first compound 0.1 µM
[9] = second compound 0.1 µM, first compound 0.316 µM
[10] = second compound 0.1 µM, first compound 1 µM
[11] = second compound 0.1 µM, first compound 3.16 µM
[12] = second compound 0.1 µM, first compound 10 µM
[13] = second compound 0.316 µM, first compound 0.0316 µM
[14] = second compound 0.316 µM, first compound 0.1 µM
[15] = second compound 0.316 µM, first compound 0.316 µM
[16] = second compound 0.316 µM, first compound 1 µM
[17] = second compound 0.316 µM, first compound 3.16 µM
[18] = second compound 0.316 µM, first compound 10 µM
[19] = second compound 1 µM, first compound 0.0316 µM
[20] = second compound 1 µM, first compound 0.1 µM
[21] = second compound 1 µM, first compound 0.316 µM
[22] = second compound 1 µM, first compound 1 µM
[23] = second compound 1 µM, first compound 3.16 µM
[24] = second compound 1 µM, first compound 10 µM
[25] = second compound 3.16 µM, first compound 0.0316 µM
[26] = second compound 3.16 µM, first compound 0.1 µM
[27] = second compound 3.16 µM, first compound 0.316 µM
[28] = second compound 3.16 µM, first compound 1 µM
[29] = second compound 3.16 µM, first compound 3.16 µM
[30] = second compound 3.16 µM, first compound 10 µM
[31] = second compound 10 µM, first compound 0.0316 µM
[32] = second compound 10 µM, first compound 0.1 µM
[33] = second compound 10 µM, first compound 0.316 µM
[34] = second compound 10 µM, first compound 1 µM
[35] = second compound 10 µM, first compound 3.16 µM
[36] = second compound 10 µM, first compound 10 µM
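Also: spheroids exposed to compounds for one week before readout.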
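For viability, T/C in this document: percent of DMSO vehicle wells luminescence so 100% = untreated viability.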

C=CC(=O)N1CCN(c2nc(=O)n(-c3c(C)ccnc3C(C)C)c3nc(-c4c(O)cccc4F)c(F)cc23)C(C)C1 (centres undefined) + COC1C(OC(N)=O)C(O)C(Oc2ccc3c(O)c(NC(=O)c4ccc(O)c(CC=C(C)C)c4)c(=O)oc3c2C)OC1(C)C
IC50 (second compound 0.0316 µM): < 0.0316 µM | IC50 (second compound 0.1 µM): < 0.0316 µM | IC50 (second compound 0.316 µM): < 0.0316 µM | IC50 (second compound 1 µM): < 0.0316 µM | IC50 (second compound 3.16 µM): < 0.0316 µM | IC50 (second compound 10 µM): < 0.0316 µM | viability, T/C [1]: 33.4% | viability, T/C [2]: 26.7% | viability, T/C [3]: 29% | viability, T/C [4]: 22.4% | viability, T/C [5]: 28% | viability, T/C [6]: 33% | viability, T/C [7]: 32.8% | viability, T/C [8]: 28.9% | viability, T/C [9]: 23.3% | viability, T/C [10]: 23.7% | viability, T/C [11]: 23.2% | viability, T/C [12]: 27.1% | viability, T/C [13]: 29.9% | viability, T/C [14]: 25.1% | viability, T/C [15]: 24.3% | viability, T/C [16]: 21% | viability, T/C [17]: 24.4% | viability, T/C [18]: 28.7% | viability, T/C [19]: 34.4% | viability, T/C [20]: 30.6% | viability, T/C [21]: 28.4% | viability, T/C [22]: 28.4% | viability, T/C [23]: 20.8% | viability, T/C [24]: 25.6% | viability, T/C [25]: 31.3% | viability, T/C [26]: 27.1% | viability, T/C [27]: 28.3% | viability, T/C [28]: 23.7% | viability, T/C [29]: 28.2% | viability, T/C [30]: 29.3% | viability, T/C [31]: 32.2% | viability, T/C [32]: 26.8% | viability, T/C [33]: 30% | viability, T/C [34]: 22.9% | viability, T/C [35]: 25.4% | viability, T/C [36]: 28.6%

COc1cc2cc(C(=O)CCC(=O)O)sc2cc1OC + COC1C(OC(N)=O)C(O)C(Oc2ccc3c(O)c(NC(=O)c4ccc(O)c(CC=C(C)C)c4)c(=O)oc3c2C)OC1(C)C
IC50 (second compound 0.0316 µM): > 10 µM | IC50 (second compound 0.1 µM): > 10 µM | IC50 (second compound 0.316 µM): > 10 µM | IC50 (second compound 1 µM): > 10 µM | IC50 (second compound 3.16 µM): > 10 µM | IC50 (second compound 10 µM): > 10 µM | viability, T/C [1]: 102% | viability, T/C [2]: 104% | viability, T/C [3]: 87.3% | viability, T/C [4]: 114% | viability, T/C [5]: 94.2% | viability, T/C [6]: 106% | viability, T/C [7]: 114% | viability, T/C [8]: 95.8% | viability, T/C [9]: 93.8% | viability, T/C [10]: 105% | viability, T/C [11]: 88.1% | viability, T/C [12]: 102% | viability, T/C [13]: 98.8% | viability, T/C [14]: 95% | viability, T/C [15]: 110% | viability, T/C [16]: 93.4% | viability, T/C [17]: 93.8% | viability, T/C [18]: 106% | viability, T/C [19]: 104% | viability, T/C [20]: 96.8% | viability, T/C [21]: 94.4% | viability, T/C [22]: 102% | viability, T/C [23]: 92.7% | viability, T/C [24]: 115% | viability, T/C [25]: 99.1% | viability, T/C [26]: 102% | viability, T/C [27]: 107% | viability, T/C [28]: 103% | viability, T/C [29]: 92.5% | viability, T/C [30]: 134% | viability, T/C [31]: 97.2% | viability, T/C [32]: 104% | viability, T/C [33]: 105% | viability, T/C [34]: 99% | viability, T/C [35]: 94.8% | viability, T/C [36]: 122%
